Values belong to the compound of their own block, whether it stands above or below them.
What was measured:
[1] = molecular target: Lysine-specific demethylase 5C (Homo sapiens, UniProt P41229); experiment: Inhibition of N-terminal FLAG/His-tagged full-length human KDM5C (2 to 1560 residues) expressed in baculovirus infected Sf9 insect cells using peptide substrate incubated for 2 hrs by Alpha Screen assay
[2] = molecular target: Lysine-specific demethylase 2A (Homo sapiens, UniProt Q9Y2K7); experiment: Inhibition of KDM2A (unknown origin)
[3] = molecular target: Lysine-specific demethylase 2B (Homo sapiens, UniProt Q8NHM5); experiment: Inhibition of KDM2B (unknown origin)
[4] = molecular target: T1, Lysine-specific demethylase 5A (Homo sapiens, UniProt P29375); experiment: Inhibition of full-length human KDM5A expressed in recombinant baculovirus expression system using […] peptide as substrate incubated for 30 to 45 mins by TR-FRET assay; set-up: species or system Sf9
[5] = molecular target: T2, Lysine-specific demethylase 4A (Homo sapiens, UniProt O75164); experiment: Inhibition of KDM4A (unknown origin) incubated for 30 mins by fluorescence based assay
T2 sequence (O75164 whole entry): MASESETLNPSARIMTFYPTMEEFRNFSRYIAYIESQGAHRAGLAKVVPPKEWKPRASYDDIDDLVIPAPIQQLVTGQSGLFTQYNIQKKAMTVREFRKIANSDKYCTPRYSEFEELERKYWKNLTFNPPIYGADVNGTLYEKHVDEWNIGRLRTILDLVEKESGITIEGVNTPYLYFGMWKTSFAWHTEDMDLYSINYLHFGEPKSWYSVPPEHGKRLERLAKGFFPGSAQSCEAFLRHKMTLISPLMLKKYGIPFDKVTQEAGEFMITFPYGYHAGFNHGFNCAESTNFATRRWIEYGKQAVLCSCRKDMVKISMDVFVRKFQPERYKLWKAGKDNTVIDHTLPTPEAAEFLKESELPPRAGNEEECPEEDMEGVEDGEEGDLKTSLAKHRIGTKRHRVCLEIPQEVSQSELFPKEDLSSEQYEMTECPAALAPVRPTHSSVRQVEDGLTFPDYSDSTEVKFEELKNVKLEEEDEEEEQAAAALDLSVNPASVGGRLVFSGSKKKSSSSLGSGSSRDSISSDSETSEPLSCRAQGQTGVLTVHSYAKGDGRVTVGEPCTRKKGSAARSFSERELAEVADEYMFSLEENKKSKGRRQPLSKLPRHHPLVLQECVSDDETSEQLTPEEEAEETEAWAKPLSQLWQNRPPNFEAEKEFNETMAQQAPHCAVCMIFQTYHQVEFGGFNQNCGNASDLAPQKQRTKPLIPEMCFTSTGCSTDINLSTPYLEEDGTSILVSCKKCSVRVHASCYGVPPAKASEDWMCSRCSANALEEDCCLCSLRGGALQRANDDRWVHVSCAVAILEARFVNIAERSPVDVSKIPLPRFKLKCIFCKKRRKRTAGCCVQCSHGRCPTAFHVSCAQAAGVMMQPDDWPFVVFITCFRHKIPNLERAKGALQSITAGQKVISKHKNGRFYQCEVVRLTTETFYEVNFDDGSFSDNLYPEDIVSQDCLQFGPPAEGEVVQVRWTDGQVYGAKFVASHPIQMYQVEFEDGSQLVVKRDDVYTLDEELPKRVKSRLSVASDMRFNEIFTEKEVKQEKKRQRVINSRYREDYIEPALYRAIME

[6] = molecular target: T2, Lysine-specific demethylase 4A; experiment: Inhibition of KDM4A (1 to 359 residues) (unknown origin) using ARTKQTARK(me3)-STGGKAPRKQLA-GGK(biotin) peptide as substrate preincubated for 10 mins followed by substrate addition measured after 45 mins by LANCE Ultra assay
[7] = molecular target: T1, Lysine-specific demethylase 5A; experiment: Inhibition of full-length KDM5A ([…])(unknown origin) using ARTK(me3)-QTARKSTGGKAPRKQLA-GGK(biotin) as substrate preincubated for 10 mins followed by substrate addition measured after 45 mins by LANCE Ultra assay
[8] = molecular target: Lysine-specific demethylase 6B (Homo sapiens, UniProt O15054); experiment: Inhibition of KDM6B (1043 to end residues) (unknown origin) using ATKAARK(me3)-SAPATGGVKKPHRYRPG-GK(biotin) as substrate preincubated for 10 mins followed by substrate addition measured after 45 mins by LANCE Ultra assay
Chain of Lysine-specific demethylase 6B (O15054 whole entry): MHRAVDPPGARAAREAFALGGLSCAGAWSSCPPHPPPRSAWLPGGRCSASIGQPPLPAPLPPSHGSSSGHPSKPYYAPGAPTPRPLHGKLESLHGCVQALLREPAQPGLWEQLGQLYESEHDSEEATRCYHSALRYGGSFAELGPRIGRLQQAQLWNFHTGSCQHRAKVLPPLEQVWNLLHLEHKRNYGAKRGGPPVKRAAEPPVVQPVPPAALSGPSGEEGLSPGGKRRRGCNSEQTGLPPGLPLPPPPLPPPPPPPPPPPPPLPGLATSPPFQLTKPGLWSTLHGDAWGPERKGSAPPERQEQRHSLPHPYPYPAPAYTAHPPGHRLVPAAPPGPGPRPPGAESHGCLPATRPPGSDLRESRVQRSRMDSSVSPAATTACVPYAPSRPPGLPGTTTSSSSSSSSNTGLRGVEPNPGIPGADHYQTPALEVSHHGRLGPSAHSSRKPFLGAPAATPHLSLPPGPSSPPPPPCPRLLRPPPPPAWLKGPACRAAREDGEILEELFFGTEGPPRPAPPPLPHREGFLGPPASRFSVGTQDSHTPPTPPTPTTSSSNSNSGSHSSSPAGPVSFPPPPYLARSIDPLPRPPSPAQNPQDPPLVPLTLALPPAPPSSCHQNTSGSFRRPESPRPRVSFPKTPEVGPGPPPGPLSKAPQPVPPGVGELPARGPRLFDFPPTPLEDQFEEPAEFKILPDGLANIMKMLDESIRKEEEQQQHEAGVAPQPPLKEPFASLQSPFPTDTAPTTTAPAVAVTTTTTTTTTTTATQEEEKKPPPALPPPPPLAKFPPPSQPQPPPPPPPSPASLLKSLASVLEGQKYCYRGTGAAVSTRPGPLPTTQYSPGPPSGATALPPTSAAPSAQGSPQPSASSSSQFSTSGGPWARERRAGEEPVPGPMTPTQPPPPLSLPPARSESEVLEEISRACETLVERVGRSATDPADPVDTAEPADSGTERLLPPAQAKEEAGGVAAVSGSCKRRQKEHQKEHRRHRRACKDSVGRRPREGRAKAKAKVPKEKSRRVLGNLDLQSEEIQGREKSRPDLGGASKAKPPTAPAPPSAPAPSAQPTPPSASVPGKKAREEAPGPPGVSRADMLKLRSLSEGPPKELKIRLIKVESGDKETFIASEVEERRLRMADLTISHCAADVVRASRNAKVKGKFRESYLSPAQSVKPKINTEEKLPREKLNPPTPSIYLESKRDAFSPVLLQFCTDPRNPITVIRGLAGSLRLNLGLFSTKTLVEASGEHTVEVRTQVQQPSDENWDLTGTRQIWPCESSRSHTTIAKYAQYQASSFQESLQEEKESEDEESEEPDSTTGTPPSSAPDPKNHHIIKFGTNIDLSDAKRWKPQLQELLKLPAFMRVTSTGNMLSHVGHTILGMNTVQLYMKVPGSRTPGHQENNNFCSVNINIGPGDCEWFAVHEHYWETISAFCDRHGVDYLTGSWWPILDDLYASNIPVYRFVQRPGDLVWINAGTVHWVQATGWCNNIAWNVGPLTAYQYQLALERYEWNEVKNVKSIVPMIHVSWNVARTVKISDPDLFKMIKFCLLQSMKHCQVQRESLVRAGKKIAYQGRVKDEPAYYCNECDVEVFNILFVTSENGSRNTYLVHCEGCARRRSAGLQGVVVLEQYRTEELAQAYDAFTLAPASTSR

T1 sequence (P29375 whole entry): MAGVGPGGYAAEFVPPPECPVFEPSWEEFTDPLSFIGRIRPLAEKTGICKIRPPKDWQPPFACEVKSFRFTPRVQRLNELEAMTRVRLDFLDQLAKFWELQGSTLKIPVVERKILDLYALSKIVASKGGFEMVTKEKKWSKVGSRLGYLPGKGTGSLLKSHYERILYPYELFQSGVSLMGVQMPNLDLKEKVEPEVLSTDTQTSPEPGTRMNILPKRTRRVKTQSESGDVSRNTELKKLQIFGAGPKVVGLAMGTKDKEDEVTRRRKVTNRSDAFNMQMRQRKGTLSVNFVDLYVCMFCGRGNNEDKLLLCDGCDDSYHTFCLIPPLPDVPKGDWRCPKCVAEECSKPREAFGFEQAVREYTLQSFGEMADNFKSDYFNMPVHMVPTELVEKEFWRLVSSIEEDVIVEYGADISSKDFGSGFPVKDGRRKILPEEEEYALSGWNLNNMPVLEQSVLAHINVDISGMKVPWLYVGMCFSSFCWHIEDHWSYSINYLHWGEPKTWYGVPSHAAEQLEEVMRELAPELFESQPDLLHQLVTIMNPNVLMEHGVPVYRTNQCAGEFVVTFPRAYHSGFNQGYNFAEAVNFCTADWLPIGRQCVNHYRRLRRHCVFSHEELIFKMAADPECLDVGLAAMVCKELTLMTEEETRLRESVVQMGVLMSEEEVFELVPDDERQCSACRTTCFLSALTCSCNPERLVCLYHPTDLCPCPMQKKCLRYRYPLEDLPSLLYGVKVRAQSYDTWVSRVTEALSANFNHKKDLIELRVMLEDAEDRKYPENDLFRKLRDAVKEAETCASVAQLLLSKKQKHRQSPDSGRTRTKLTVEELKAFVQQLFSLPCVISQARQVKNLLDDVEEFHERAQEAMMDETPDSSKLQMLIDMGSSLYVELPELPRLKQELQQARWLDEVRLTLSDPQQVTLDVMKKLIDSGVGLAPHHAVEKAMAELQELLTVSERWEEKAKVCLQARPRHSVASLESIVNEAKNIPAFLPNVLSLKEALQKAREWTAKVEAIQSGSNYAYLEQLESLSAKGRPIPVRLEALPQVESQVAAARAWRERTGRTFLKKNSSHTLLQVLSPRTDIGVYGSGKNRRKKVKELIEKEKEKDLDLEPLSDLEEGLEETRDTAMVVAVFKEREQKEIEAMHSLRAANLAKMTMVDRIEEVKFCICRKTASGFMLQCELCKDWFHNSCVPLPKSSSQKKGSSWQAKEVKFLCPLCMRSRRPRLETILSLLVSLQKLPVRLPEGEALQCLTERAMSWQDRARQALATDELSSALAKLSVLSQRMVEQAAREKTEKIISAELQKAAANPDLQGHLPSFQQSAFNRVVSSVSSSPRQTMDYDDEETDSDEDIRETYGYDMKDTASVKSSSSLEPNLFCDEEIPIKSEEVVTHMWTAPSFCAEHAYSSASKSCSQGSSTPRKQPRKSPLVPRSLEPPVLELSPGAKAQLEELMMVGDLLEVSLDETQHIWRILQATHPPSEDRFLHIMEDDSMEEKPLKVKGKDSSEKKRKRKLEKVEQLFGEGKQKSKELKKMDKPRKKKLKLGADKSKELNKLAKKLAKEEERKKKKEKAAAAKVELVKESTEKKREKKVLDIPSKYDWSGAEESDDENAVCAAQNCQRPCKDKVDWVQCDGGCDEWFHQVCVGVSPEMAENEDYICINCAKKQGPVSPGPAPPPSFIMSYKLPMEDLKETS
Chain of Lysine-specific demethylase 5C (P41229 whole entry, the tested form may be a part): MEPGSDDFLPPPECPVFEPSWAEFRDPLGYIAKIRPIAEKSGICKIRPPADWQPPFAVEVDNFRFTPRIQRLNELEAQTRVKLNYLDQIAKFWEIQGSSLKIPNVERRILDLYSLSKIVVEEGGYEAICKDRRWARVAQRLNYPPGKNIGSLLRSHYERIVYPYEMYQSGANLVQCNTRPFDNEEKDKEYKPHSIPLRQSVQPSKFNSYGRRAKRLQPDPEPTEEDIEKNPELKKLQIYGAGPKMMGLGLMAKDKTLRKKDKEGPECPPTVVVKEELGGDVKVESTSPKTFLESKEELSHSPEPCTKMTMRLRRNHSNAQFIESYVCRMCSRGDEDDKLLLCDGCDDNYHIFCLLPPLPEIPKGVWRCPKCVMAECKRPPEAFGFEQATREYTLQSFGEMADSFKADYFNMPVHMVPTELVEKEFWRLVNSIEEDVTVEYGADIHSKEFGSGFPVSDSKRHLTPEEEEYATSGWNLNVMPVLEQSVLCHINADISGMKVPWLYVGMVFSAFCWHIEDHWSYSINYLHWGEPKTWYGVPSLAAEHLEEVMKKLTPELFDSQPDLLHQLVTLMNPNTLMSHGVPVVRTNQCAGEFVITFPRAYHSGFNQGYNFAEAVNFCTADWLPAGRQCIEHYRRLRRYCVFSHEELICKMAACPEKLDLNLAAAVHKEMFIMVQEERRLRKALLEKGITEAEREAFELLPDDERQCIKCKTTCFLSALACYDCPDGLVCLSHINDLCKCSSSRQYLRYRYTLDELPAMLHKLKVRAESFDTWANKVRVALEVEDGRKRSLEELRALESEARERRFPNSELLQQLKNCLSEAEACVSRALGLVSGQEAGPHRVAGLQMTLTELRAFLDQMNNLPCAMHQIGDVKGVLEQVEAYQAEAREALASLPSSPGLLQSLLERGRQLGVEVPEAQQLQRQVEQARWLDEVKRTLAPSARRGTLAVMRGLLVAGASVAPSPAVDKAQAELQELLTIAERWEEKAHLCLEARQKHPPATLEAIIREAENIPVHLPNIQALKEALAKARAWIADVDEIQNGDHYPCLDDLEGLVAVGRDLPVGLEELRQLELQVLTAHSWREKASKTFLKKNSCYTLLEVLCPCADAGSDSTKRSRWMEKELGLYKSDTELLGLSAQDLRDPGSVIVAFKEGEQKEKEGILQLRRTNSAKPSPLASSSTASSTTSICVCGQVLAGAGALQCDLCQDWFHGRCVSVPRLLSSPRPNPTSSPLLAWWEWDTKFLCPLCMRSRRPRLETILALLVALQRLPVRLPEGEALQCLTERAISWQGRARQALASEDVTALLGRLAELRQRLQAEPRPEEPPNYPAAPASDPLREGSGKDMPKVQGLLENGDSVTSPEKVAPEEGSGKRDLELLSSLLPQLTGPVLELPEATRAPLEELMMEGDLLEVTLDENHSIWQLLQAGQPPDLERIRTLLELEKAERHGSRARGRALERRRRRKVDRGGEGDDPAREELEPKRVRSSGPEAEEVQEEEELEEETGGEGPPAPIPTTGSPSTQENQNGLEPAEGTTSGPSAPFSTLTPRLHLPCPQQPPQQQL

IC50 [1]: 0.0088 µM
Compound: CCCCCCN(C)CCn1cc(-c2cc(C(=O)O)ccn2)nn1

Compound: Cc1c(O)c(=O)ccn1C [DEFERIPRONE]
IC50 [2]: 6.8 µM
IC50 [3]: 8.1 µM

Compound: Cc1cc(O[C@H](C)C(=O)NCC(=O)NCC(=O)O)c2c3c(c(=O)oc2c1)CCC3
IC50 [4]: 0.0238 µM
IC50 [5]: > 100 µM

IC50 [6]: 4.76 µM
IC50 [8]: 3.95 µM
Compound: O=C(O)c1ccc(-n2nc(-c3ccccc3O)nc2-c2ccccc2O)cc1 [DEFERASIROX]
IC50 [7]: 5 µM

— ChEMBL document CHEMBL5126529, “Drug discovery of histone lysine demethylases (KDMs) inhibitors (progress from 2018 to present)” (Eur J Med Chem, 2022)
